Source: ChEMBL document CHEMBL4229333, “Effects of rigidity on the selectivity of protein kinase inhibitors” (Eur J Med Chem, 2018)
The source made the active and inactive calls. The calls are words filed in the database; no cut-off is given here.

Key:
[1] = molecular target: T1, Tyrosine-protein kinase ABL1 (Homo sapiens, UniProt P00519); assay: Inhibition of ABL (unknown origin) by phosphocellulose paper disk assay
[2] = molecular target: Serine/threonine-protein kinase B-raf (Homo sapiens, UniProt P15056, V600E); assay: Inhibition of BRAF V600E mutant (unknown origin) after 20 mins by immunoblotting assay
Serine/threonine-protein kinase B-raf, sequence (P15056 2-766 V600E limits assumed): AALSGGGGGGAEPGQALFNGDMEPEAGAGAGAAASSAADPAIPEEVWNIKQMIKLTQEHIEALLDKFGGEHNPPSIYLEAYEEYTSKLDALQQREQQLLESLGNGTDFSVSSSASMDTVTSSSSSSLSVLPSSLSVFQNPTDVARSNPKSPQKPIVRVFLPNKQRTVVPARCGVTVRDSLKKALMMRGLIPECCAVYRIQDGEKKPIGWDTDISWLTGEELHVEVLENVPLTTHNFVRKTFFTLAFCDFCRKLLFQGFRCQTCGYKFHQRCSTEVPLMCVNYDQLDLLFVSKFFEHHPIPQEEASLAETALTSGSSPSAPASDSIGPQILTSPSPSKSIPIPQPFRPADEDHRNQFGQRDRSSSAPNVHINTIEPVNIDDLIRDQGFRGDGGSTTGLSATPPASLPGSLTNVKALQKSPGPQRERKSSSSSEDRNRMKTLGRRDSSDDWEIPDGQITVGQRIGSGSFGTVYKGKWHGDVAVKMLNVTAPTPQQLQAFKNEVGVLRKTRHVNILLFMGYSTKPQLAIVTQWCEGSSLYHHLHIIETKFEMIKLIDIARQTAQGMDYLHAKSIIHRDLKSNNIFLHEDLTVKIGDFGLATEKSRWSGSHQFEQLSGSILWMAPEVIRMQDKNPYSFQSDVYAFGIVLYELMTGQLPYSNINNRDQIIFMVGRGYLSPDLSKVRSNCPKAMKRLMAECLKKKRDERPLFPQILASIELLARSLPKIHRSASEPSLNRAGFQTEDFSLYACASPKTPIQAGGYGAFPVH

[3] = molecular target: T1, Tyrosine-protein kinase ABL1; assay: Inhibition of ABL (unknown origin) at 30 nM by phosphocellulose paper disk assay
Bcr/Abl fusion protein = Bcr/Abl fusion protein (Homo sapiens, UniProt P00519); assay: Inhibition of BCR-ABL (unknown origin) expressed in mouse BA/F3 cells assessed as reduction in ABL phosphorylation at Y412 residue incubated for 3 hrs by immunoblotting assay; format: cell-based
Bcr/Abl fusion protein, sequence (P00519 whole entry, the tested form may be a part): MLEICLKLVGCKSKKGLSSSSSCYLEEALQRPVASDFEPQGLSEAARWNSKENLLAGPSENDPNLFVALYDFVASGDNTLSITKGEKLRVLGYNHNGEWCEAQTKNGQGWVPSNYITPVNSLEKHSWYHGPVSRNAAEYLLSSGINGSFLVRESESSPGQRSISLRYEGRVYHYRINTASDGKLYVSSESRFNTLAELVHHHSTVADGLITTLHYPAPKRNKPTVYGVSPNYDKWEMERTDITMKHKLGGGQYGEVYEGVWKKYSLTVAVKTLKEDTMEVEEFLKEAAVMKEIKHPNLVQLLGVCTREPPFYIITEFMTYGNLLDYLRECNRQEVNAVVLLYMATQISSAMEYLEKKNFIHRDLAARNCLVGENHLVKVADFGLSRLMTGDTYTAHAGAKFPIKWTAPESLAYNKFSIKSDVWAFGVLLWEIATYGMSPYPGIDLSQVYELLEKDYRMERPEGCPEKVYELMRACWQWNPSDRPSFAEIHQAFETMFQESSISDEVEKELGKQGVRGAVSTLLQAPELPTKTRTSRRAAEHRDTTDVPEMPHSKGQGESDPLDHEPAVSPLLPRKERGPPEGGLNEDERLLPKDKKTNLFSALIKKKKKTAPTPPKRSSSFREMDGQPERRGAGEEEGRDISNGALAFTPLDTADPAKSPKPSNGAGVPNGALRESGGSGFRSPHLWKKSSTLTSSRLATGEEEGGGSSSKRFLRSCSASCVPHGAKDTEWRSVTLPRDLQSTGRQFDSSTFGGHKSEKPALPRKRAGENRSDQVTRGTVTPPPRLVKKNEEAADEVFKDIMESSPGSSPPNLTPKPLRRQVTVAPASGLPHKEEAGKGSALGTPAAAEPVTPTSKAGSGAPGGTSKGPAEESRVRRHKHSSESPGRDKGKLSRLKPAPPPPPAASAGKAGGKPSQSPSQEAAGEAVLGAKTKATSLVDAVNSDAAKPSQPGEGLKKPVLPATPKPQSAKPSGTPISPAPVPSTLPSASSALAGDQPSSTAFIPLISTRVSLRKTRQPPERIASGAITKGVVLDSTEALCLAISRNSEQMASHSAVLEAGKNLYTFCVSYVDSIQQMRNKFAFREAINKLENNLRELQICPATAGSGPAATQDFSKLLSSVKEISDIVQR
Bcr/Abl fusion protein, sequence (P11274 whole entry, further chain, the tested form may be a part): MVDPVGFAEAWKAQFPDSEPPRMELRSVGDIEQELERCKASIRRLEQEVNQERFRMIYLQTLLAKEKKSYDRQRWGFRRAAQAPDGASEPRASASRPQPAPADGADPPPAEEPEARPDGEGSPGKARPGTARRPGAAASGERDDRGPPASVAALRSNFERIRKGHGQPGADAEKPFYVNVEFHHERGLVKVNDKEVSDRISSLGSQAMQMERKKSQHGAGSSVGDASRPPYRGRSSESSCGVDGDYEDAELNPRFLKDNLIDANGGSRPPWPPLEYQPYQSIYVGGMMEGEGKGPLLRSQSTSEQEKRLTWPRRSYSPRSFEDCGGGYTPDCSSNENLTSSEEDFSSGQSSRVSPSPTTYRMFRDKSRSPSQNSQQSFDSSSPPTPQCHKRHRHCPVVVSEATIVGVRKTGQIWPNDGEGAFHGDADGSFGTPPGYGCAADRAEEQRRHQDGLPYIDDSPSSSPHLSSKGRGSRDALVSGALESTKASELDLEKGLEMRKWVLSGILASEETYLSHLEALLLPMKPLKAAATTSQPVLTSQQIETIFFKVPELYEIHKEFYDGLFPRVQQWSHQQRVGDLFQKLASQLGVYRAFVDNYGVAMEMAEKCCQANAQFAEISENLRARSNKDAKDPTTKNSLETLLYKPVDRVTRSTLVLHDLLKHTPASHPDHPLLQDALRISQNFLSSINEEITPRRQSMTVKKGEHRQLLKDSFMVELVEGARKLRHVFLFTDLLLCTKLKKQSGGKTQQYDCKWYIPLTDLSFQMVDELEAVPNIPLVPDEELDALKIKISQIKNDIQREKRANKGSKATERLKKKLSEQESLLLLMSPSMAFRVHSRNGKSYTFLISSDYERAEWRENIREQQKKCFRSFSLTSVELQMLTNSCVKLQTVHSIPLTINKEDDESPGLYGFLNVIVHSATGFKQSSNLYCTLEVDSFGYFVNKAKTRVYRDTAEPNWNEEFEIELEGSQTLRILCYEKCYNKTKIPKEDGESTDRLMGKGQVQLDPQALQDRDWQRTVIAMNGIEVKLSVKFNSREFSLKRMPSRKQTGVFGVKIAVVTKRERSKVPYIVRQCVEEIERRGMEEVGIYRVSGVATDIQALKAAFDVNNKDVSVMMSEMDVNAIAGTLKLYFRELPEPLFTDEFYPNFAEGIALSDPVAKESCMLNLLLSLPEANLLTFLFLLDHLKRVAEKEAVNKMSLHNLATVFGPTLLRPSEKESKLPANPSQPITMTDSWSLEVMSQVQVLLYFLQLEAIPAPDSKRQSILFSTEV

[4] = system: Serine/threonine-protein kinase B-raf (Homo sapiens), P15056 [V600E]; assay: Inhibition of BRAF V600E mutant in human A375 cells assessed as decrease in MEK phosphorylation up to 100 uM after 1 hr by immunoblotting assay; format: cell-based
Serine/threonine-protein kinase B-raf (Homo sapiens), P15056 [V600E], sequence (P15056 whole entry V600E): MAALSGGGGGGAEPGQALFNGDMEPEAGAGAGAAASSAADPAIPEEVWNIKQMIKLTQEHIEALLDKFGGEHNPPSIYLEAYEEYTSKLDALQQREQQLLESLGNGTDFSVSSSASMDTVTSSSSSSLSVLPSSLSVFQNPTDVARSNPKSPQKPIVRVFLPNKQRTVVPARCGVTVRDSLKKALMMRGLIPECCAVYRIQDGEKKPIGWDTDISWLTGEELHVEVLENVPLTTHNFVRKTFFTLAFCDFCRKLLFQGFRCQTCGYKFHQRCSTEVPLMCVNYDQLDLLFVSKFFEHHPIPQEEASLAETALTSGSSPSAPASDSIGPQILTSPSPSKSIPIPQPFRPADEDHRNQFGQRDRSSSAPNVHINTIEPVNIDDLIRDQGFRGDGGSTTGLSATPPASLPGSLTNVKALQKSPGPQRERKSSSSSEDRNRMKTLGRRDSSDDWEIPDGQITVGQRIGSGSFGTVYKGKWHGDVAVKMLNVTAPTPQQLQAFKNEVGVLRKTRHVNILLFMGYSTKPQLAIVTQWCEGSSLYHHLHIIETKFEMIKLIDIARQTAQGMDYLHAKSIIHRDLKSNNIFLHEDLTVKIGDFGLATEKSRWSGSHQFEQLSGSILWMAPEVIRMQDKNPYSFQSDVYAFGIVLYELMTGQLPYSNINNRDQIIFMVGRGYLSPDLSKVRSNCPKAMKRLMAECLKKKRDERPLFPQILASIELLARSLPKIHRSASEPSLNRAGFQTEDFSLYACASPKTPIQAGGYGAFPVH

T1 sequence (P00519 whole entry): as the sequence (P00519 whole entry, the tested form may be a part) above

| SMILES | IC50 [1] [nM] | IC50 [2] [nM] | inhibition [3] | IC50 (Bcr/Abl fusion protein) [nM] | inhibition [4] |
| --- | --- | --- | --- | --- | --- |
| Cc1ccc2cc(-c3cccc(C(F)(F)F)c3)ncc2c1C#Cc1nn(C(C)C)c2ncnc(N)c12 | 10 | 44 | inactive | – | – |
| CC(C)n1nc(C#Cc2cccc3cc(-c4ccc(Cl)cc4)ncc23)c2c(N)ncnc21 | – | 46 | – | – | – |
| CC(C)n1nc(C#Cc2cccc3cc(-c4ccc(CN5CCN(C)CC5)cc4)ncc23)c2c(N)ncnc21 | 7 | 51 | inactive | 211 | – |
| CC(C)n1nc(C#Cc2cccc3cc(-c4ccc(Cl)c(C(F)(F)F)c4)ncc23)c2c(N)ncnc21 | 22 | 87 | inactive | – | – |

Compounds with a lower IC50 [2], results first:

| IC50 [1] [nM] | IC50 [2] [nM] | inhibition [3] | IC50 (Bcr/Abl fusion protein) [nM] | inhibition [4] | SMILES |
| --- | --- | --- | --- | --- | --- |
| – | 24 | – | – | – | Cc1ccc(-c2cc3cccc(C#Cc4nn(C(C)C)c5ncnc(N)c45)c3cn2)cc1 |
| 3.5 | 13 | inactive | – | inactive | CCn1nc(C#Cc2cccc3cc(-c4cccc(C(F)(F)F)c4)ncc23)c2c(N)ncnc21 |
